Assay results taken from article PMC10248798, “Arabidopsis nicotianamine synthases comprise a common core-NAS domain fused to a variable autoinhibitory C terminus” (The Journal of Biological Chemistry, 2023).

Columns and labels:
Type in all cases: biochemical
MetK = molecular target: T1, MetK (Escherichia coli, UniProt P0A817); test: one-pot coupled synthesis of nicotianamine with MtnN and AtNAS1; settings: coupled to AtNAS1 and MtnN
T1 construct: full length, C-terminal His6 tag (pET-21b), Ni-NTA purified from E. coli
T1 sequence (P0A817 2-384): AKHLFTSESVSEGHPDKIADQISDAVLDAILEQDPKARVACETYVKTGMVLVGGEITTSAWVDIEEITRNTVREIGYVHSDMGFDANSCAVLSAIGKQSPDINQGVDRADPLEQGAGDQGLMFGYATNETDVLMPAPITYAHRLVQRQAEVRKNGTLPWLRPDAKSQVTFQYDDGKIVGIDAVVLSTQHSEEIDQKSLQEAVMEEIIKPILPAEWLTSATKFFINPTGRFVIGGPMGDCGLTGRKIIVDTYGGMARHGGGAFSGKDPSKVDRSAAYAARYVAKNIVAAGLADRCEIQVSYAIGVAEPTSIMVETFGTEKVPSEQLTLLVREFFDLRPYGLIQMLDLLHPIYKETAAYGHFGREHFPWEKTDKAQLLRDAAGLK

MtnN = molecular target: T2, MtnN (Escherichia coli, UniProt P0AF12); test: TLC; settings: 2.5 mM MTA, 50 mM Tris/HCl pH 8.7, 30 °C
T2 construct: full length, C-terminal His6 tag (pET-21b), Ni-NTA purified from E. coli
T2 sequence (P0AF12 whole entry): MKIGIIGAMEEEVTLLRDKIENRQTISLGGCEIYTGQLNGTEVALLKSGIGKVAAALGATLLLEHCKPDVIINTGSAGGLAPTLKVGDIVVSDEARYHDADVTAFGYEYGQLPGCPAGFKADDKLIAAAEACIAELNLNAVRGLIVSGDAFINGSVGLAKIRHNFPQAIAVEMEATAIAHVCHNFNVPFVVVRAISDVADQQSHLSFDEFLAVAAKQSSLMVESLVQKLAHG

AtNAS4 ΔC47 = molecular target: T3, AtNAS4 ΔC47 (Arabidopsis thaliana, UniProt Q9C7X5); test: coupled spectrophotometric assay (MtnN/AdeD, A265); settings: 0.125 mM SAM, 50 mM Tris-HCl pH 8.7, 37 °C
T3 construct: gene NAS4; core-NAS domain, 47 C-terminal residues removed, C-terminal His6 tag (pET-21b), E. coli
T3 sequence (Q9C7X5 1-277): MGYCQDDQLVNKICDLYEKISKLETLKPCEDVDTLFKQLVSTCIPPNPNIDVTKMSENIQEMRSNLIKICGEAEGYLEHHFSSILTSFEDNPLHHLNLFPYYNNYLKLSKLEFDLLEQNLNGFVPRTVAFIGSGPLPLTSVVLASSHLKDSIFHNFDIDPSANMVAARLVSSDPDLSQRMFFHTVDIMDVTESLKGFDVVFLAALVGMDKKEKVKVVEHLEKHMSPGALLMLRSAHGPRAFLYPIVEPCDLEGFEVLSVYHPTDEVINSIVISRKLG

AtNAS3 ΔC42 = molecular target: T4, AtNAS3 ΔC42 (Arabidopsis thaliana, UniProt O80483); test: coupled spectrophotometric assay (MtnN/AdeD, A265); settings: 0.125 mM SAM, 50 mM Tris-HCl pH 8.7, 37 °C
T4 construct: gene NAS3; core-NAS domain, 42 C-terminal residues removed, C-terminal His6 tag (pET-21b, NheI/NotI), E. coli
T4 sequence (O80483 1-278): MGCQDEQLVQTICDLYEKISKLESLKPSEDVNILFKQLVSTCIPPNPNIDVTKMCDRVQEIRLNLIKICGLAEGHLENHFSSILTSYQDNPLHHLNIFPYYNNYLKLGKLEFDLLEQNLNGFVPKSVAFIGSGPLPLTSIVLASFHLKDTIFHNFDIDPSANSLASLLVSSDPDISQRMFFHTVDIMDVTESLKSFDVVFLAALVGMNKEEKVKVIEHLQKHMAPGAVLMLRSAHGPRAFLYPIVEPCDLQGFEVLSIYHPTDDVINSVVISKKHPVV

AdeD = molecular target: T5, AdeD (Escherichia coli, UniProt P31441); test: TLC; settings: 3 mM adenine, 50 mM Tris/HCl pH 8.7, 30 °C
T5 construct: gene ade; full length, C-terminal His6 tag (pET-21b), Ni-NTA purified from E. coli
T5 sequence (P31441 whole entry): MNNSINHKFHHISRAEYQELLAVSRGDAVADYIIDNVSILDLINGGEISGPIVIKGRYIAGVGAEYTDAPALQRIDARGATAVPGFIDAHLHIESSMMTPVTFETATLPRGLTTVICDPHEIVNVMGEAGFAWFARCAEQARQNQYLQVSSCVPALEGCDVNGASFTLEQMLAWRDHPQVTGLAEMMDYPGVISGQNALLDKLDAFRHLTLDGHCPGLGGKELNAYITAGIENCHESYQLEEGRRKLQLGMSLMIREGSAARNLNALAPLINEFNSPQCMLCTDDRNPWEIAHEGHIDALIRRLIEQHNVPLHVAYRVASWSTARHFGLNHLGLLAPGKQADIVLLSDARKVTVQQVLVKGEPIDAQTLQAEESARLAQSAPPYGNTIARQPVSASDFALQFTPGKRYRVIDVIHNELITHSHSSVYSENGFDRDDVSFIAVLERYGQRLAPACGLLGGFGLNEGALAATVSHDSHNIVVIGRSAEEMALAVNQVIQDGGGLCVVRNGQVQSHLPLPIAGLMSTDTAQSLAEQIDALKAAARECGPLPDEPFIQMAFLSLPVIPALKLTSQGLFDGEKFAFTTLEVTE

## Nc1ncnc2c1ncn2[C@@H]1O[C@H](COP(=O)(O)OP(=O)(O)OP(=O)(O)O)[C@@H](O)[C@H]1O [ATP]
MetK; co-substrate L-methionine
  one-pot coupled synthesis of nicotianamine with MtnN and AtNAS1: we combined MetK with MtnN and AtNAS1 for the one-pot synthesis of NA from ATP

## CSCC[C@H](N)C(=O)O [L-methionine]
MetK; co-substrate ATP
  one-pot coupled synthesis of nicotianamine with MtnN and AtNAS1: we combined MetK with MtnN and AtNAS1 for the one-pot synthesis of NA from ATP

## CSC[C@H]1O[C@@H](n2cnc3c(N)ncnc32)[C@H](O)[C@@H]1O [MTA]
MtnN
  TLC: MtnN- and AdeD, were active in NAS reaction buffer when assayed individually with their respective substrates

## C[S+](CC[C@H](N)C(=O)O)C[C@H]1O[C@@H](n2cnc3c(N)ncnc32)[C@H](O)[C@@H]1O (stereo partly drawn) [SAM]
AtNAS4 ΔC47
  coupled spectrophotometric assay (MtnN/AdeD, A265): The truncated variants of AtNAS3 and AtNAS4 also showed strongly increased activities
AtNAS3 ΔC42
  coupled spectrophotometric assay (MtnN/AdeD, A265): The truncated variants of AtNAS3 and AtNAS4 also showed strongly increased activities

## Nc1ncnc2[nH]cnc12 [adenine]
AdeD
  TLC: MtnN- and AdeD, were active in NAS reaction buffer when assayed individually with their respective substrates
